Data as given in patent US8367716B2 (priority 2003, dated 2013).

Key:
[1] = test system: Salmonela enteritidis; assay: Biofilm formation in Salmonela enteritidis; assay type: cell-based
[2] = test system: S. aureus strain DK825
[3] = test system: S. aureus DK825; assay: Effect on 24 h pre-formed biofilms; assay type: cell-based, Staphylococcus aureus; conditions: 200 μM added to 24 h pre-formed biofilm, further 24 h
Protocol: Effect of c-di-GMP on S. aureus pre-formed biofilms. S. aureus DK825 was subcultured from glycerol stocks onto blood agar plate and incubated at 37° C. statically. A single colony was inoculated into 5 ml TSB broth (containing 0.25% glucose) and incubated at 37° C. overnight with shaking at 250 rpm until the culture reached OD660˜3.0. Following incubation the culture was diluted to 1:250 with fresh TSB broth and a 200 μl of the diluted culture was transferred into each well of microtitre plate and the plate containing wells with S. aureus cultures was incubated statically at 37° C. for 24 h. After 24 h, an appropriate volume of c-di-GMP was added to give a final concentration of 200 μM and represented the “treated” sample. As an “untreated” control, an identical volume of 0.9% NaCl was added to independent wells. The plates were then incubated statically at 37° C. for an additional 24 h. Following incubation the culture was discarded and microtitre plate was washed twice with 1X PBS. An equal volume (260 μl) of 1X PBS was added to each well for washing. The plates were then kept for drying on paper towel ˜30 min. A 260 μl of 0.1% crystal violet was added to each well to stain the cells in the biofilm and the plates were incubated at room temperature for 30 min. […] To quantitatively assay the amount of biofilm, the OD570 was measured by a spectrophotometer (SpectraMAX 250, Molecular Devices). […]

[4] = test system: S. aureus; assay: Biofilm formation on polystyrene microtitre plates (crystal violet, O.D.570); assay type: cell-based, Staphylococcus aureus
Protocol: Effect of c-di-GMP on S. aureus biofilm formation. S. aureus strains were subcultured from glycerol stocks onto blood agar plates and incubated at 37° C. for 18 h. A single colony was inoculated into 5 ml TSB broth with a sterilized loop and incubated at 37° C. for 18 h with shaking at 250 rpm and until the O.D.660 reached 3.0 as measured spectrophotometrically using a spectrophotometer (SpectraMAX 250, Molecular Devices). Following incubation, the culture was diluted 1:250 with fresh TSB and a 200 μl of the diluted culture was transferred into wells of a flat-bottom polystyrene microtitre plate (Evergreen Scientific). […] In these biofilm experiments, similar volumes of 0.9% NaCl was added to a set of different wells representing the “untreated” control samples. The microtitre plates were then incubated statically at 37° C. for 24 h or 48 h. Following incubation, the supernatant was carefully discarded and the wells washed twice with 260 μl PBS. The plate was then kept for drying on a paper towel for 30 min after which 260 μl 0.1% crystal violet was added to each well and the plates incubated at room temperature for 30 min. The crystal violet was discarded and plate washed gently with water, the wells allowed to dry for 30 min then 260 μl DMSO was added to each well and gently agitated for 1 h and the O.D.570 measured by using a spectrophotometer (SpectraMAX 250, Molecular Devices). The results of these biofilm assays were based on data obtained from at least three independent colonies tested in duplicate.

[5] = 0.2 N NaOH, ~pH 13.5, 37° C. for 24 h; Ross et al.; cited from earlier work
[6] = test system: S. aureus strain DK825 adherence to HeLa cells; assay: Epithelial cell assay (bacterial adherence to HeLa cells); assay type: cell-based, Staphylococcus aureus
Protocol: Epithelial cell assay. HeLa cells (ATCC CCL2) were grown to confluence in complete medium (10% FBS from Sigma, DMEM/F12 with glutamine from Invitrogen and 50 μg/ml gentamicin) and were trypsinized with 0.1% trypsin-EDTA. Approximately 1×10^5 HeLa cells were seeded in each well of a chamber slide and then the HeLa cells were incubated at 37° C. in 5% CO2 for at least 18 h until 85% confluent. Prior to infection, the HeLa cells were washed twice with warm PBS and then 500 μl warm FMEM/F12 was added to each well. For the bacterial adherence assay, an overnight culture of S. aureus strain DK825 was grown overnight in 5 ml LB broth at 37° C. with shaking at 250 rpm. Following incubation, 1 ml of the overnight culture was pelleted, washed twice with PBS and resuspended in 1 ml of PBS. The HeLa cells in the wells were washed twice with 500 μl of HBSS and aliquots of DMEM with the desired final concentration of c-di-GMP (0-, 2-, 20- and 200 μM) were prepared. DMEM (500 μl) containing the respective concentrations of c-di-GMP was inoculated into the wells containing HeLa cells followed by the addition of 10 μl (˜10^7 cells) S. aureus (MOI HeLa:bacteria˜1:100). The epithelial cell assay was incubated in CO2 for 45 min. Following incubation the cells were washed twice with 500 μl PBS and fixed with 2% formalin for 20 min. The cells were again washed twice with PBS and stained with Giemsa stain for 10 seconds, washed three times with PBS, then the cells covered with 40 μl of 90% glycerol in water and a cover slip was placed. The slides were observed under a light microscope (Zeiss Axioskop) at 630×mag. The level of bacterial adherence to 100 individual HeLa cells was calculated for each duplicate treatment and the average determined.

In the case of `Nc1nc2c(ncn2C2OC3COP(=O)(O)OC4C(COP(=O)(O)OC3C2O)OC(n2cnc3c(=O)[nH]c(N)nc32)C4O)c(=O)[nH]1` (centres unmarked) [c-di-GMP, 3′,5′-cyclic diguanylic acid], the “effect on biofilm formation” value [1] is reported as “induce or enhance biofilm formation”, the “expression of enterotoxin 1, Down-regulated” value [2] is reported as 0.35 fold and the “expression of enterotoxin A, Down-regulated” value [2] is reported as 0.54 fold. For the same compound, the “expression of toxic shock syndrome toxin, Down-regulated” value [2] was 0.45 fold, the “expression of PBP-2, Up-regulated” value ([2]; 200 μM vs untreated control) was 2.0 fold and the “expression of PBP-4, Up-regulated” value ([2]; 200 μM vs untreated control) was 1.7 fold. For the same compound, the “expression of agrA (quorum sensing), Up-regulated” value ([2]; 200 μM vs untreated control) was 5.4 fold, the “expression of agrB (quorum sensing), Up-regulated” value ([2]; 200 μM vs untreated control) was 5.8 fold and the “expression of agrC (quorum sensing), Up-regulated” value ([2]; 200 μM vs untreated control) was 2.0 fold. The “expression of agrD (quorum sensing), Up-regulated” value ([2]; 200 μM vs untreated control) was 2.2 fold, the “expression of clfA (clumping factor), Down-regulated” value ([2]; 200 μM vs untreated control) was 0.54 fold and the “expression of clfB (clumping factor), Down-regulated” value ([2]; 200 μM vs untreated control) was 0.43 fold. For the same compound, the “expression of collagen adhesin, Down-regulated” value ([2]; 200 μM vs untreated control) was 0.55 fold, the “expression of exfoliative toxin, Down-regulated” value ([2]; 200 μM vs untreated control) was 0.52 fold and the “expression of fbnA (fibrinogen binding), Down-regulated” value ([2]; 200 μM vs untreated control) was 0.66 fold. For the same compound, the “expression of fnbB (fibronectin binding), Down-regulated” value ([2]; 200 μM vs untreated control) was 0.47 fold, the “expression of icaR (intercellular adhesin), Down-regulated” value ([2]; 200 μM vs untreated control) was 0.62 fold and the “expression of rsbW (anti-sigmaB), Up-regulated” value ([2]; 200 μM vs untreated control) was 4.5 fold. For the same compound, the “expression of saeR (response regulator), Up-regulated” value ([2]; 200 μM vs untreated control) was 2.5 fold, the “expression of saeS (histidine kinase), Up-regulated” value ([2]; 200 μM vs untreated control) was 1.5 fold and the “expression of vacuolating cytotoxin, Down-regulated” value ([2]; 200 μM vs untreated control) was 0.56 fold. The “reduction of further biofilm development” value [3] was roughly 75%, the “reduction of biofilm formation” value ([4]; DK825, 20 μM, 24 h) was roughly 50% and the “reduction of biofilm formation” value ([4]; DK825, 200 μM, 24 h) was roughly 65%. The “reduction of biofilm formation” value ([4]; DK825, 400 μM, 24 h) was roughly 85%, the “reduction of biofilm formation” value ([4]; bovine strains V329, M556, V299, V315) was 50-70% and the “reduction of cell-to-surface interactions and biofilm formation” value ([4]; human and bovine isolates vs untreated controls) was greater than 50%. For the same compound, the “stability in relatively strong alkali (cellulose activating activity)” value [5] was “labile”, the “effect on adherence to HeLa cells” value ([6]; 2 μM) was “did not show any obvious effect” and the “effect on adherence to HeLa cells” value ([6]; 20 μM) was “did not show any obvious effect”. For the same compound, the reduction in adherence ([6]; 200 μM) was roughly 66% and the average adherence ([6]; 200 μM, untreated 12 bacteria/cell) was 4 bacteria/cell.
